Laboratory results: publication PMC9668914, “Understanding VPAC receptor family peptide binding and selectivity” (Nature Communications, 2022)
Read-outs that look alike come from different tables or passages of the source.

Legend:
[1] = target: T1, PAC1R (Homo sapiens, UniProt P41586); experiment: cAMP accumulation, chimeric peptides (Fig. 5b); format: cell-based; conditions: COS-7, three-parameter logistic, read-out: pEC50, PAC1R cAMP (converted)
T1 construct: An HA signal peptide was inserted in place of the native signal peptide of the receptors; HA signal peptide (replaces the native signal peptide) (N); 3C protease cleavage sites (between FLAG and receptor, and between receptor and His) (internal); expressed in transfected cells; host or cells: COS-7 (transient, PEI)
T1 sequence (P41586 21-468): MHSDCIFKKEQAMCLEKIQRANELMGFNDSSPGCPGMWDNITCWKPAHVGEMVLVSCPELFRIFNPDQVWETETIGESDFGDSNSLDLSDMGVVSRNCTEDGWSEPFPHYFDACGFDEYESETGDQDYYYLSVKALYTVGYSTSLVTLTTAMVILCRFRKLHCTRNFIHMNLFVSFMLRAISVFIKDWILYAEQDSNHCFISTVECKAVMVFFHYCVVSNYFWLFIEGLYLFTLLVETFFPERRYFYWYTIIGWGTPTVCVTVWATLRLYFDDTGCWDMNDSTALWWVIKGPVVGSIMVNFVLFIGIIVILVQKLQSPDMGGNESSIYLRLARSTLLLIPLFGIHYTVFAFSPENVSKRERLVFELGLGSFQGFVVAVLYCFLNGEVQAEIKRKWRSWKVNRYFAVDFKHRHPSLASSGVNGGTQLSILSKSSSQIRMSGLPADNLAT
From the text: (§1) An HA signal peptide was inserted in place of the native signal peptide of the receptors and a FLAG epitope was incorporated into the receptor N-terminus immediately after the signal peptide. A His tag was fused to C-terminus of the receptor. 3C protease cleavage sites were inserted between both the FLAG and His tags and the receptor. […] The following PAC1R and VPAC1R mutants were also generated using Quikchange mutagenesis: PAC1R C25A, PAC1R C219A, PAC1R C25A/C219A, VPAC1R C37A and VPAC1R C208A. For all PAC1R constructs, we used the PAC1R null (PAC1n) splice variant. A construct containing N-terminal NLuc immediately after the native signal peptide of PAC1R was also generated in pcDNA3.1.
COS-7 cells were used for the chimeric peptide and cysteine mutagenesis pharmacological assays due to their lack of endogenous expression of PAC1R and receptor activity-modifying proteins, reported to potentially heterodimerize with PAC1R and VPAC1R[42]. Cells were cultured in Dulbecco’s Modified Eagle’s Medium (DMEM) (Invitrogen) supplemented with 5% v/v heat-inactivated FBS at 37 °C and […] /5% CO2 in a humidified incubator. COS-7 cells were plated in 10 cm dishes at approximately 1 million cells/dish. Cells were transfected 24 h later, with 5 µg of either WT or mutant PAC1R or VPAC1R receptor DNA. DNA and PEI (in a 1:6 ratio) were each diluted in 150 mM NaCl, and then combined and incubated for 10 min, before the mixture was added to the 10 cm dish. The next day, cells were harvested from the 10 cm dishes using Trypsin-Versene (PBS + 0.5 mM EDTA, pH 7.4), and were seeded at a density of 15,000 cells/well into clear 96-well culture plates and incubated overnight at 37 °C in 5% CO2 for cAMP accumulation assay the next day.
The reaction was terminated after 30 min by aspiration of the buffer and addition of 50 μl of ice-cold ethanol. Upon evaporation of ethanol, 75 μl of lysis buffer (5 mM HEPES, 0.1% (w/v) OVA, 0.3% (w/v) Tween20, pH 7.4) was added to the cells. cAMP detection was performed using a LANCE cAMP Detection Kit (PerkinElmer) for the construct validation and cysteine mutagenesis pharmacological assays and cAMP Gs HiRange kit (Cisbio) for the chimeric peptide pharmacological assays. The plates were read using an EnVision plate reader with excitation at 320 nm and emission at 615 nm[45].
(§2) The pharmacological data in figures and tables are reported as mean + standard error of the mean (SEM) with the number of biological replicates indicated in the figure and table legends where “n” represents the number of biological replicates performed. Concentration-response data were analyzed in GraphPad Prism version 9.4.0 using a three-parameter logistic curve to derive pEC50 values for the cyclic AMP accumulation. Competition binding data were analyzed in GraphPad Prism using the one site—Fit log IC50 model to derive pIC50 values. For the cysteine mutagenesis data, comparisons of multiple different groups were performed using one-way analysis of variance (ANOVA), followed by Dunnett’s post-hoc test with the control group being the WT receptor, with significance accepted at p < 0.05. For the chimeric peptide data, comparisons of multiple different groups were performed using one-way ANOVA, followed by Tukey’s post-hoc test, with significance accepted at p < 0.05.

[2] = target: T2, Nluc-PAC1R (Homo sapiens, UniProt P41586); experiment: NanoBRET competition binding, AF568-PACAP27 probe (Fig. 5c); conditions: COS-7, 30 nM AF568-PACAP27, 4 °C, read-out: pIC50, PAC1R competition binding (converted)
T2 construct: A construct containing N-terminal NLuc immediately after the native signal peptide of PAC1R was also generated in pcDNA3.1; expressed in transfected cells; host or cells: COS-7 (transient, PEI; whole cells at 4 °C)
T2 sequence (P41586 21-468): T1 sequence (P41586 21-468)
From the text: as §1
Therefore, the lysine residue at position 21 was replaced with a cysteine residue (^21C) for the facile conjugation of fluorophore via thiol-maleimide click reaction. The resulting target peptide ^21C-PACAP27 (Mutant fragment) with amidated C-terminus was synthesized by standard Fmoc-solid phase peptide synthesis method[43] and purified by Reversed-phase high-performance liquid chromatography (RP-HPLC). […] of Alexa Fluor™ 568F was purchased from ThermoFisher Scientific (Catalog number: A20003). The thiol-maleimide conjugation reaction was carried out by our published protocol. […] The molecular weight of the probe was confirmed by Matrix-Assisted Laser Desorption/Ionization Time-of-Flight Mass Spectrometry (MALDI-TOF MS).
COS-7 cells were plated in 10 cm dishes at approximately 1 million cells/dish. Cells were transfected 24 h later, using 3 μg of Nluc-PAC1R DNA using the method described above and then seeded at a density of 15,000 cells per well in white-bottom 96-well culturplates 24 h prior to assay. On the day of the assay, cell culture media was replaced with BRET buffer (0.1% ovalbumin, 10 mM HEPES, 1x HBSS, pH 7.45) and incubated at 4 °C for two hours. […] After 1.5 h, furimazine (10 μM final concentration) was added to each well and the plate incubated for a further 30 min in the dark at 4 °C before reading. Filtered light emissions were measured at 460±40 nm (donor channel) and at 610-LP nm (long pass) (acceptor channel) using a PHERAstar plate reader (BMG Labtech). The raw NanoBRET ratio was calculated by dividing the luminescence from the acceptor channel by the donor channel. Data were expressed as % AF568-PACAP27 BRET signal in the absence of competing ligand.
as §2

[3] = target: Nluc-PAC1R (UniProt P41586); experiment: FRET or BRET; NanoBRET whole cell competition binding; COS-7 cells with Nluc-PAC1R, 30 nM AF568-PACAP27 and increasing competing peptide added together, 4 °C, BRET buffer (0.1% ovalbumin, 10 mM HEPES, 1x HBSS, pH 7.45); one site fit of log IC50
[4] = system: GLP-1R; conditions: cited from earlier work
From the text: In the equivalent position as R ...

[5] = system: VPAC1R WT, C37A, C208A; experiment: cAMP accumulation, cysteine mutagenesis (Fig. 6d, Supplementary Fig. 13a-c); format: cell-based; conditions: for Difference in cAMP potency (pEC50) between WT and mutant VPAC1R: COS-7, mean of n = 3
Procedure: (§3) Maps are shown in transparent and model backbones are shown in ribbon format. The relevant cysteines are shown as stick models, with the putative disulfide bond present. […] The data for panels d and e are the mean ± SEM, n = 3 independent experiments. Differences in potency between WT and mutant receptors was assessed using a one-way ANOVA and Dunnett’s post-test. […] Interactions are listed by percentage of occupancy of frames, with the background colouring representing maximum occupancy % (red) and minimum occupancy % (white). Receptor residue background colouring is according to their residue numbering (TM transmembrane helix, ECL3 extracellular loop 3). Table is based on data presented in Supplementary Table 4. Source data for panels d and e are provided in the Source Data file.
as §1
(§4) COS-7 cells were used for the chimeric peptide and cysteine mutagenesis pharmacological assays due to their lack of endogenous expression of PAC1R and receptor activity-modifying proteins, reported to potentially heterodimerize with PAC1R and VPAC1R[42]. […] COS-7 cells were plated in 10 cm dishes at approximately 1 million cells/dish. Cells were transfected 24 h later, with 5 µg of either WT or mutant PAC1R or VPAC1R receptor DNA. […]
(§5) The reaction was terminated after 30 min by aspiration of the buffer and addition of 50 μl of ice-cold ethanol. […] The plates were read using an EnVision plate reader with excitation at 320 nm and emission at 615 nm[45].
(§6) The pharmacological data in figures and tables are reported as mean + standard error of the mean (SEM) with the number of biological replicates indicated in the figure and table legends where “n” represents the number of biological replicates performed. Concentration-response data were analyzed in GraphPad Prism version 9.4.0 using a three-parameter logistic curve to derive pEC50 values for the cyclic AMP accumulation. Competition binding data were analyzed in GraphPad Prism using the one site—Fit log IC50 model to derive pIC50 values. […]

[6] = system: PAC1R WT, C25A, C219A, C25A/C219A; experiment: cAMP accumulation, cysteine mutagenesis (Fig. 6e, Supplementary Fig. 13d-f); format: cell-based; conditions: COS-7, mean of n = 3
Procedure: as §3, §1, §4, §5, §6

[7] = system: M299^PAC1R/D301^PAC1R; conditions: cited from earlier work
From the text: Nonetheless, the secondary engagement of the peptide N-terminus with ECL2/ECL3 appeared to coordinate interactions that preceded the movement of the far N-terminal residues deeper into the binding pocket. Unique residues in ECL2 that differ between the V ...

[8] = system: VPAC2R; conditions: cited from earlier work

Q: For `CC[C@H](C)[C@H](NC(=O)[C@H](CO)NC(=O)[C@H](CC(N)=O)NC(=O)[C@H](CC(C)C)NC(=O)[C@H](Cc1ccc(O)cc1)NC(=O)[C@H](CCCCN)NC(=O)[C@H](CCCCN)NC(=O)[C@@H](NC(=O)[C@H](C)NC(=O)[C@H](CCSC)NC(=O)[C@H](CCC(N)=O)NC(=O)[C@H](CCCCN)NC(=O)[C@H](CCCN=C(N)N)NC(=O)[C@H](CC(C)C)NC(=O)[C@H](CCCN=C(N)N)NC(=O)[C@@H](NC(=O)[C@H](Cc1ccc(O)cc1)NC(=O)[C@H](CC(N)=O)NC(=O)[C@H](CC(=O)O)NC(=O)[C@@H](NC(=O)[C@H](Cc1ccccc1)NC(=O)[C@@H](NC(=O)[C@H](C)NC(=O)[C@H](CC(=O)O)NC(=O)[C@H](CO)NC(=O)[C@@H](N)Cc1c[nH]cn1)C(C)C)[C@@H](C)O)[C@@H](C)O)C(C)C)C(=O)N[C@@H](CC(C)C)C(=O)N[C@@H](CC(N)=O)C(N)=O` [VIP, vasoactive intestinal peptide, reference compound], which EC50 ([1]; replicate n=1) is on record?
A: 0.0385 µM

Q: And the EC50 ([1]; replicate n=2)?
A: 0.0309 µM

Q: What about the EC50 ([1]; replicate n=3) of the same molecule?
A: 0.0433 µM

Q: What about the EC50 ([1]; replicate n=4) of the same molecule?
A: 0.0764 µM

Q: What about the EC50 ([1]; replicate n=5) of the same molecule?
A: 0.104 µM

Q: What about the IC50 ([2]; replicate n=1) of the same molecule?
A: 4.5 µM

Q: What about the IC50 ([2]; replicate n=2) of the same molecule?
A: 8.09 µM

Q: What about the IC50 ([2]; replicate n=3) of the same molecule?
A: 12.7 µM

Q: What about the IC50 ([2]; replicate n=4) of the same molecule?
A: 15.7 µM

Q: And the IC50 ([2]; replicate n=5)?
A: 7.14 µM

Q: With Ala4 PACAP27 (peptide) as the molecule, how does the fold reduction in pIC50 relative to PACAP27 [3] read?
A: 30 fold

Q: With GLP-1: glucagon-like peptide 1 as the molecule, how does the “GLP-1 affinity with R380 of GLP-1R switched to the VPAC1R residue” value [4] read?
A: reduced GLP-1 affinity

Q: What about the “GLP-1 potency for cAMP production at GLP-1R D372A, E373A” value [4] of the same molecule?
A: reduced GLP-1 potency for cAMP production

Q: What does the source list for “PACAP38: PACAP38, a 38 amino acid peptide”?
A: Difference in cAMP potency (pEC50) between WT and mutant VPAC1R ([5]; C37A): -0.5843; Difference in cAMP potency (pEC50) between WT and mutant VPAC1R ([5]; C208A): -0.568; reduction in cAMP potency at single cysteine mutants of either receptor, compared with VIP ([5]; VPAC1R and PAC1R single mutants (Fig. 6d, e), only significant for PACAP27 at C37A VPAC1R or C25A PAC1R): much smaller reduction in potency; Difference in cAMP potency (pEC50) between WT and mutant VPAC1R ([5]; WT): 0; Difference in cAMP potency (pEC50) between WT and mutant PAC1R ([6]; C25A C219A): -0.4376; Difference in cAMP potency (pEC50) between WT and mutant PAC1R ([6]; C25A): -0.9347; Difference in cAMP potency (pEC50) between WT and mutant PAC1R ([6]; C219A): -0.4471; Difference in cAMP potency (pEC50) between WT and mutant PAC1R ([6]; WT): 0; PACAP38-mediated cAMP production with alanine mutation of M299/D301 PAC1R [7]: reduced PACAP38-mediated cAMP production

Q: Which VPAC2R affinity [8] does the source give for “pituitary adenylate cyclase-activating polypeptide [PACAP]” here?
A: high affinity
